Patent US20250144067A1, “PERSONALIZED STARVATION THERAPY FOR CANCER” (Faeth Therapeutics, Inc., priority 2021, published 2025)
Counter-ions that a name gives are not always drawn. Peptide text beside a SMILES is read from it.

Assays:
[1] = system: NCI-H292 lung cancer cells; test: FDA drug screening, complete media vs cholesterol-free media without statin (TABLE 1); format: cell-based, human
[2] = system: NCI-H292 lung cancer cells; test: FDA drug screening, complete media vs cholesterol-free media with simvastatin (TABLE 2); format: cell-based, human; conditions: for Cholesterol-free media + simvastatin (0.04 μM) / Complete Media: NCI-H292 cells
[3] = Complete minus Cholesterol-free, greater than 0 enhanced anti-cancer activity, about 0 neutral, below 0 antagonists
[4] = NCI-H292 cells in cholesterol-free media without statin
[5] = NCI-H292 cells in complete media
[6] = FDA drug library screen, cholesterol-free media with simvastatin 0.04 μM
[7] = FDA drug library screen, complete media
[8] = complete media vs cholesterol-free media + simvastatin (0.04 μM), >0 enhanced anti-cancer activity, about 0 neutral, <0 antagonist
[9] = Complete minus Cholesterol-free, >0 enhanced anti-cancer activity, about 0 neutral, <0 antagonist
[10] = NCI-H292 cells, cholesterol-free media without statin
[11] = complete media minus cholesterol-free media + simvastatin, >0 enhanced anti-cancer activity, about 0 neutral, <0 antagonist
[12] = complete vs cholesterol-free media, greater than 0 enhanced anti-cancer activity, about 0 neutral, below 0 antagonists
[13] = FDA library drug in cholesterol-free media with simvastatin 0.04 μM
[14] = FDA library drug in complete media
[15] = drug in cholesterol-free media with simvastatin 0.04 μM
[16] = NCI-H292 cells, cholesterol-free media without statin, FDA drug library screen
[17] = NCI-H292 cells, complete media, FDA drug library screen
[18] = complete vs cholesterol-free media, >0 enhanced anti-cancer activity, about 0 neutral, <0 antagonist
[19] = complete vs cholesterol-free media, […]
[20] = complete media vs cholesterol-free media + simvastatin (0.04 μM), […]
[21] = Complete minus Cholesterol-free, greater than 0 enhanced anti-cancer activity, about 0 neutral, below 0 antagonist
[22] = NCI-H292 cells, FDA drug library screen, cholesterol-free media without statin
[23] = NCI-H292 cells, FDA drug library screen, complete media
[24] = complete media minus cholesterol-free media + simvastatin (0.04 μM), >0 enhanced anti-cancer activity, about 0 neutral, <0 antagonist

Molecule: CCO/N=C(\C(=O)N[C@@H]1C(=O)N2C(C(=O)[O-])=C(Sc3nc(-c4cc[n+](C)cc4)cs3)CS[C@H]12)c1nsc(NP(=O)(O)O)n1 [Ceftaroline fosamil]
- Difference [1, 3]: −0.71
- Cholesterol-free [1, 4]: 1.53
- Complete [1, 5]: 0.8244
- Cholesterol-free media + simvastatin (0.04 μM) [2, 6]: 1.027
- Complete Media [2, 7]: 0.9313
- Difference [2, 8]: −0.10

Molecule: CN1CCN(C2=Nc3cc(Cl)ccc3Nc3ccccc32)CC1 [Clozapine]
- Difference [1, 9]: −0.23
- Cholesterol-free [1, 10]: 1.346
- Complete ([1]; NCI-H292 cells, complete media): 1.114
- Cholesterol-free media + simvastatin (0.04 μM) [2, 6]: 0.8452
- Complete Media [2, 7]: 1.094
- Difference [2, 11]: 0.25

Molecule: CC(C)OC(=O)OCOP(=O)(CO[C@H](C)Cn1cnc2c(N)ncnc21)OCOC(=O)OC(C)C.O=C(O)/C=C/C(=O)O [Tenofovir (Disoproxil Fumarate)]
- Cholesterol-free [1, 10]: 1.163
- Complete ([1]; NCI-H292 cells, complete media): 0.7425
- Difference [1, 12]: −0.42
- Cholesterol-free media + simvastatin (0.04 μM) [2, 13]: 1.321
- Complete Media [2, 14]: 0.7221
- Difference [2, 8]: −0.60

Molecule: O=c1[nH]cnc2c1ncn2[C@H]1CC[C@@H](CO)O1 [Didanosine]
- Difference [1, 9]: −0.23
- Cholesterol-free [1, 10]: 0.9969
- Complete ([1]; NCI-H292 cells, complete media): 0.7675
- Cholesterol-free media + simvastatin (0.04 μM) [2, 6]: 0.9758
- Complete Media [2, 7]: 0.8636
- Difference [2, 8]: −0.11

Molecule: C=C1CC[C@H](O)C/C1=C/C=C1\CCC[C@]2(C)[C@@H]([C@H](C)CCCC(C)(C)O)CC[C@@H]12 [Calcifediol]
- Difference [1, 3]: −0.53
- Cholesterol-free [1, 4]: 1.425
- Complete [1, 5]: 0.8976
- Cholesterol-free media + simvastatin (0.04 μM) [2, 15]: 1.216
- Complete Media ([2]; drug in complete media): 1.052
- Difference [2, 8]: −0.16

Molecule: CC(=O)Oc1cc(C(C)C)c(OCCN(C)C)cc1C [Moxisylyte (hydrochloride)]
- Difference [1, 9]: 0.07
- Cholesterol-free [1, 16]: 1.028
- Complete [1, 17]: 1.096
- Cholesterol-free media + simvastatin (0.04 μM) [2, 15]: 1.237
- Complete Media ([2]; drug in complete media): 1.071
- Difference [2, 8]: −0.17

Molecule: CN(C)c1ccc(O)c2c1C[C@H]1C[C@H]3[C@H](N(C)C)C(O)=C(C(N)=O)C(=O)[C@@]3(O)C(O)=C1C2=O [Minocycline (hydrochloride)]
- Cholesterol-free [1, 16]: 0.8959
- Complete [1, 17]: 1.177
- Difference [1, 18]: 0.28
- Cholesterol-free media + simvastatin (0.04 μM) [2, 6]: 1.589
- Complete Media [2, 7]: 1.958
- Difference [2, 11]: 0.37

Molecule: CC1(C)C(C=C(Cl)Cl)C1C(=O)OCc1cccc(Oc2ccccc2)c1 (stereo not drawn) [Permethrin]
- Cholesterol-free [1, 10]: 1.352
- Complete ([1]; NCI-H292 cells, complete media): 0.9496
- Difference [1, 19]: −0.40
- Cholesterol-free media + simvastatin (0.04 μM) [2, 13]: 1.233
- Complete Media [2, 14]: 0.8994
- Difference [2, 20]: −0.33

Molecule: CN1[C@@H]2CC[C@H]1C[C@@H](OC(=O)c1c[nH]c3ccccc13)C2 [Tropisetron (Hydrochloride)]
- Difference [1, 9]: −0.30
- Cholesterol-free [1, 10]: 1.166
- Complete ([1]; NCI-H292 cells, complete media): 0.8628
- Cholesterol-free media + simvastatin (0.04 μM) [2, 6]: 1.118
- Complete Media [2, 7]: 0.9866
- Difference [2, 8]: −0.13

Molecule: CCC(C)n1ncn(-c2ccc(N3CCN(c4ccc(OCC5COC(Cn6cncn6)(c6ccc(Cl)cc6Cl)O5)cc4)CC3)cc2)c1=O (stereo not drawn) [Itraconazole]
- Cholesterol-free [1, 16]: 0.7502
- Complete [1, 17]: 1.257
- Difference [1, 18]: 0.51
- Cholesterol-free media + simvastatin (0.04 μM) [2, 6]: 1.121
- Complete Media [2, 7]: 0.9797
- Difference [2, 8]: −0.14

Molecule: NCCCC[C@H](N)C(=O)O.O=C(O)COc1nn(Cc2ccccc2)c2ccccc12 [Bendazac L-Lysine]
- Cholesterol-free [1, 16]: 0.6107
- Complete [1, 17]: 1.115
- Difference [1, 19]: 0.50
- Cholesterol-free media + simvastatin (0.04 μM) [2, 6]: 1.079
- Complete Media [2, 7]: 0.922
- Difference [2, 20]: −0.16

Molecule: C[C@H]1C[C@@H]2[C@H]([C@@H](O)C[C@@]3(C)[C@H]2CC[C@]3(O)C(=O)CO)[C@@]2(C)C=CC(=O)C=C12 [Methylprednisolone]
- Difference [1, 9]: −0.22
- Cholesterol-free [1, 10]: 0.8356
- Complete ([1]; NCI-H292 cells, complete media): 0.6178
- Cholesterol-free media + simvastatin (0.04 μM) [2, 6]: 1.016
- Complete Media [2, 7]: 1.212
- Difference [2, 11]: 0.20

Molecule: Cc1c(C(C)C)c(=O)n(-c2ccccc2)n1C [Propyphenazone]
- Difference [1, 21]: −0.12
- Cholesterol-free [1, 22]: 1.128
- Complete [1, 23]: 1.005
- Cholesterol-free media + simvastatin (0.04 μM) [2, 6]: 2.378
- Difference [2, 24]: −1.31

Molecule: Flupirtine (Maleate)
- Difference [1, 3]: −0.56
- Cholesterol-free [1, 4]: 1.589
- Cholesterol-free media + simvastatin (0.04 μM) ([2]; cholesterol-free media with simvastatin 0.04 μM, cell growth value in FDA drug screen): 0.9024
- Complete Media ([2]; complete media, cell growth value in FDA drug screen): 0.9412
- Difference [2, 11]: 0.04

Molecule: O=C(CCCCC(=O)Nc1c(I)cc(I)c(C(=O)O)c1I)Nc1c(I)cc(I)c(C(=O)O)c1I [Iodipamide]
- Difference [1, 21]: −0.08
- Cholesterol-free [1, 22]: 0.9527
- Complete [1, 23]: 0.876
- Cholesterol-free media + simvastatin (0.04 μM) [2, 15]: 1.387
- Complete Media ([2]; drug in complete media): 1.135
- Difference [2, 8]: −0.25

Molecule: COC(=O)[C@H](Cc1ccccc1)NC(=O)[C@@H](N)CC(=O)O [Aspartame] (HELM PEPTIDE1{D.F.[CO[*:1]]}$$$$V2.0)
- Difference [1, 9]: −0.06
- Cholesterol-free [1, 16]: 1.044
- Complete [1, 17]: 0.9887
- Cholesterol-free media + simvastatin (0.04 μM) [2, 15]: 1.165
- Complete Media ([2]; drug in complete media): 0.9998
- Difference [2, 8]: −0.17

Molecule: CCCOc1ccc(S(=O)(=O)N2CCN(CCO)CC2)cc1-c1nc2c(CCC)cn(CC)c2c(=O)[nH]1 [Mirodenafil (dihydrochloride)]
- Difference [1, 9]: −0.27
- Cholesterol-free [1, 10]: 1.435
- Cholesterol-free media + simvastatin (0.04 μM) [2, 6]: 0.7461
- Complete Media [2, 7]: 0.9273
- Difference [2, 11]: 0.18

Molecule: O=C(O)C(c1ccccc1)(c1ccccc1)c1ccccc1.OCc1cc([C@@H](O)CNCCCCCCOCCOCc2c(Cl)cccc2Cl)ccc1O [Vilanterol (trifenatate)]
- Cholesterol-free [1, 10]: 1.453
- Complete ([1]; NCI-H292 cells, complete media): 1.047
- Difference [1, 12]: −0.41
- Cholesterol-free media + simvastatin (0.04 μM) ([2]; cholesterol-free media with simvastatin 0.04 μM, FDA drug library screen (TABLE 2)): 0.9213
- Complete Media ([2]; complete media, FDA drug library screen (TABLE 2)): 0.9369
- Difference [2, 24]: 0.02

Molecule: C[C@H](CCC(=O)NCCS(=O)(=O)O)[C@H]1CC[C@H]2[C@@H]3[C@H](O)C[C@@H]4C[C@H](O)CC[C@]4(C)[C@H]3CC[C@]12C [Taurochenodeoxycholic acid]
- Difference ([1]; Complete minus Cholesterol-free, […]): −0.12
- Cholesterol-free [1, 22]: 0.9676
- Complete [1, 23]: 0.8469
- Cholesterol-free media + simvastatin (0.04 μM) [2, 15]: 1.179
- Complete Media ([2]; drug in complete media): 1.003
- Difference [2, 20]: −0.18

Molecule: O=[N+]([O-])O[C@@H]1CO[C@H]2[C@@H]1OC[C@@H]2O [Isosorbide mononitrate]
- Cholesterol-free [1, 10]: 1.459
- Complete ([1]; NCI-H292 cells, complete media): 1.127
- Difference [1, 19]: −0.33
- Cholesterol-free media + simvastatin (0.04 μM) [2, 6]: 0.8339
- Complete Media [2, 7]: 1.021
- Difference ([2]; complete media minus cholesterol-free media + simvastatin, […]): 0.19

Molecule: NC(CO)(CO)CO [Trometamol]
- Cholesterol-free [1, 10]: 1.471
- Complete ([1]; NCI-H292 cells, complete media): 1.133
- Difference [1, 12]: −0.34
- Cholesterol-free media + simvastatin (0.04 μM) [2, 6]: 1.116
- Complete Media [2, 7]: 0.9694
- Difference [2, 8]: −0.15

Molecule: CC1=C(/C=C/C(C)=C/C=C/C(C)=C/C(=O)O)C(C)(C)CCC1 [Retinoic acid]
- Difference [1, 3]: −0.66
- Cholesterol-free [1, 4]: 1.248
- Complete [1, 5]: 0.5841
- Cholesterol-free media + simvastatin (0.04 μM) [2, 6]: 0.9194
- Complete Media [2, 7]: 1.253
- Difference [2, 11]: 0.33
